# Assay results published in patent publication EP1561465A2, “Methods of use of fluoroquinolone compounds against bacteria” (LG Life Sciences, Ltd., priority 1999, dated 2001).
# Read-outs that look alike come from different tables or passages of the source.
# Tests used:
# Shigella spp. = assay: MIC by agar dilution (NCCLS M7-A4), 288 enteropathogenic isolates, gemifloxacin and 15 other antimicrobials; format: cell-based
# Experimental: [A. hydrophila (12), and A. sobria (4)], and 91 Campylobacter jejuni. […] The strains were stored in skimmed-milk at -80 °C until studied.
# The plates were incubated aerobically at 35 °C for 24 h, except for Campylobacter jejuni, where a microaerophilic atmosphere was obtained by using Campy Pack (Becton Dickinson, Cockeysville, MD, USA), and incubation was for 48 h. All organisms were tested with an inoculum of ≅ 10^4 cfu/spot. MICs were defined as the lower antibiotic concentration with no visible growth.
# Campylobacter jejuni = assay: as above; details: for % Susceptible / MIC (mg/L) 50% / MIC (mg/L) 90% / MIC (mg/L) Range: Campylobacter jejuni N= 91
# Salmonella spp. = assay: as above; format: cell-based; details: for Rates of non-susceptible microorganisms / susceptible isolates / isolates being resistant: Salmonella spp.; for susceptible isolates: breakpoints; for MIC: Salmonella; for % Susceptible / MIC (mg/L) 50% / MIC (mg/L) 90% / MIC (mg/L) Range: Salmonella spp. N= 106
# Hafnia alvei = assay: as above; format: cell-based; details: for MIC / % Susceptible / MIC (mg/L) 50% / MIC (mg/L) 90% / MIC (mg/L) Range: Hafnia alvei N= 32
# Yersinia enterocolitica = assay: as above; format: cell-based; details: for MIC / % Susceptible / MIC (mg/L) 50% / MIC (mg/L) 90% / MIC (mg/L) Range: Yersinia enterocolitica N= 22
# Aeromonas spp. = assay: as above; format: cell-based; details: for MIC / % Susceptible / MIC (mg/L) 50% / MIC (mg/L) 90% / MIC (mg/L) Range: Aeromonas spp. N= 16
# Streptococcus pneumoniae = assay: MIC by agar dilution (NCCLS), 411 isolates Buenos Aires 1998-99; format: cell-based; details: S. pneumoniae
# Enterococcus faecalis = assay: MIC by agar macrodilution (NCCLS), 373 Gram positive isolates, Athens 1998; format: cell-based; details: for MIC50: read-out: MIC50
# [1] = Campylobacter jejuni, read-out: MIC (mg/L) 50%
# [2] = Campylobacter jejuni, read-out: MIC (mg/L) 90%
# [3] = read-out: MIC (mg/L) 50%, Salmonella spp. N= 106
# [4] = read-out: MIC (mg/L) 90%, Salmonella spp. N= 106
# [5] = 24 h, read-out: MIC (mg/L) Range
# [6] = number of isolates at MIC […], n = 81
# [7] = number of isolates with MIC […], 14 isolates
molecule,measurement,setting,value
CC1(C)S[C@@H]2[C@H](NC(=O)[C@H](N)c3ccccc3)C(=O)N2[C@H]1C(=O)O [ampicillin],susceptible isolates,"Shigella spp.; Shigella spp., breakpoints",43%
same,MIC,"Shigella spp.; read-out: MIC (mg/L) 50%, Shigella spp. N= 21",64 mg/L
same,MIC,"Shigella spp.; read-out: MIC (mg/L) 90%, Shigella spp. N= 21",> 128 mg/L
same,MIC,Campylobacter jejuni; [1],8 mg/L
same,MIC,Campylobacter jejuni; [2],32 mg/L
same,Rates of non-susceptible microorganisms,Salmonella spp.,23%
same,susceptible isolates,Salmonella spp.,77%
same,MIC,Salmonella spp.; [3],4 mg/L
same,MIC,Salmonella spp.; [4],> 128 mg/L
same,MIC,Hafnia alvei; [5],2 to 64 mg/L
same,MIC,Hafnia alvei; read-out: MIC (mg/L) 50%,16 mg/L
same,MIC,Hafnia alvei; read-out: MIC (mg/L) 90%,64 mg/L
same,MIC,Yersinia enterocolitica; [5],32 to 64 mg/L
same,susceptibility of isolates,Yersinia enterocolitica; Yersinia enterocolitica,non susceptible
same,MIC,Yersinia enterocolitica; read-out: MIC (mg/L) 50%,32 mg/L
same,MIC,Yersinia enterocolitica; read-out: MIC (mg/L) 90%,64 mg/L
same,susceptibility of isolates,Aeromonas spp.; Aeromonas spp.,non susceptible
same,MIC,Aeromonas spp.; read-out: MIC (mg/L) 50%,> 128 mg/L
same,MIC,Aeromonas spp.; read-out: MIC (mg/L) 90%,> 128 mg/L
colistin,% Susceptible,Shigella spp.; Shigella spp. N= 21,100%
same,MIC (mg/L) 50%,Shigella spp.; Shigella spp. N= 21,0.25 mg/L
same,MIC (mg/L) 90%,Shigella spp.; Shigella spp. N= 21,0.25 mg/L
same,MIC (mg/L) Range,Shigella spp.; Shigella spp. N= 21,0.25 mg/L
same,% Susceptible,Campylobacter jejuni,3%
same,MIC (mg/L) 50%,Campylobacter jejuni,4 mg/L
same,MIC (mg/L) 90%,Campylobacter jejuni,8 mg/L
same,MIC (mg/L) Range,Campylobacter jejuni,1 to 32 mg/L
same,% Susceptible,Salmonella spp.,32%
same,MIC (mg/L) 50%,Salmonella spp.,8 mg/L
same,MIC (mg/L) 90%,Salmonella spp.,8 mg/L
same,susceptible isolates,Salmonella spp.,32%
same,% Susceptible,Hafnia alvei,6%
same,MIC (mg/L) 50%,Hafnia alvei,8 mg/L
same,MIC (mg/L) 90%,Hafnia alvei,16 mg/L
same,MIC (mg/L) Range,Hafnia alvei,0.5 to 16 mg/L
same,% Susceptible,Yersinia enterocolitica,100%
same,MIC (mg/L) 50%,Yersinia enterocolitica,1 mg/L
same,MIC (mg/L) 90%,Yersinia enterocolitica,1 mg/L
same,MIC (mg/L) Range,Yersinia enterocolitica,0.5 to 1 mg/L
same,% Susceptible,Aeromonas spp.,81%
same,MIC (mg/L) 50%,Aeromonas spp.,2 mg/L
same,MIC (mg/L) 90%,Aeromonas spp.,4 mg/L
same,MIC (mg/L) Range,Aeromonas spp.,0.25 to 32 mg/L
co-trimoxazole,MIC90,Streptococcus pneumoniae; Penicillin intermediate (n = 17),8 µg/mL
same,MIC90,Streptococcus pneumoniae; Penicillin resistant (n = 4),>16 µg/mL
same,MIC90,Streptococcus pneumoniae; Penicillin susceptible (n = 69),8 µg/mL
same,isolates being resistant,Campylobacter jejuni; C. jejuni,4%
same,Rates of non-susceptible microorganisms,Salmonella spp.,4%
same,isolates being resistant,Salmonella spp.,4%
"C[C@H]1c2cccc(O)c2C(=O)C2=C(O)[C@]3(O)C(=O)C(C(N)=O)=C(O)[C@@H](N(C)C)[C@@H]3[C@@H](O)[C@@H]21 [Doxycycline, doxycycline]",Rates of non-susceptible microorganisms,Shigella spp.; Shigella spp.,43%
same,MIC,"Shigella spp.; Shigella, 24 h, read-out: MIC (mg/L) Range",0.5 to 32 mg/L
same,MIC,"Shigella spp.; Shigella, read-out: MIC (mg/L) 50%",16 mg/L
same,MIC,"Shigella spp.; Shigella, read-out: MIC (mg/L) 90%",32 mg/L
same,Rates of non-susceptible microorganisms,Campylobacter jejuni; Campylobacter jejuni,40%
same,MIC (mg/L) Range,Campylobacter jejuni,0.06 to 64 mg/L
same,MIC,Campylobacter jejuni; [1],16 mg/L
same,MIC,Campylobacter jejuni; [2],32 mg/L
same,Rates of non-susceptible microorganisms,Salmonella spp.,22%
same,MIC (mg/L) Range,Salmonella spp.,1 to 128 mg/L
same,MIC,Salmonella spp.; [3],2 mg/L
same,MIC,Salmonella spp.; [4],16 mg/L
same,MIC,Hafnia alvei; [5],1 to 16 mg/L
same,Rates of non-susceptible microorganisms,Hafnia alvei; Hafnia alvei,22%
same,MIC,Hafnia alvei; read-out: MIC (mg/L) 50%,2 mg/L
same,MIC,Hafnia alvei; read-out: MIC (mg/L) 90%,8 mg/L
same,MIC,Yersinia enterocolitica; [5],0.25 to 8 mg/L
same,Rates of non-susceptible microorganisms,Yersinia enterocolitica; Yersinia enterocolitica,5%
same,MIC,Yersinia enterocolitica; read-out: MIC (mg/L) 50%,1 mg/L
same,MIC,Yersinia enterocolitica; read-out: MIC (mg/L) 90%,2 mg/L
same,MIC (mg/L) Range,Aeromonas spp.,0.25 to 4 mg/L
same,MIC,Aeromonas spp.; read-out: MIC (mg/L) 50%,0.5 mg/L
same,MIC,Aeromonas spp.; read-out: MIC (mg/L) 90%,2 mg/L
CC[C@H]1OC(=O)[C@H](C)[C@@H](O[C@H]2C[C@@](C)(OC)[C@@H](O)[C@H](C)O2)[C@H](C)[C@@H](O[C@@H]2O[C@H](C)C[C@H](N(C)C)[C@H]2O)[C@](C)(O)C[C@@H](C)C(=O)[C@H](C)[C@@H](O)[C@]1(C)O [erythromycin],isolates inhibited by a concentration ≤0.5 mg/l,Campylobacter jejuni; C. jejuni,77%
same,concentration inhibiting all the other isolates,Campylobacter jejuni; C. jejuni isolates other than the highly resistant strain,≤ 4 mg/L
same,MIC,Campylobacter jejuni; Campylobacter jejuni,128 mg/L
same,MIC,Campylobacter jejuni; [1],0.5 mg/L
same,MIC,Campylobacter jejuni; [2],1 mg/L
same,MIC50,"Enterococcus faecalis; Enterococcus faecalis, continuation of the preceding table (title not shown), 14 isolates",≥ 32 µg/mL
same,MIC50,"Enterococcus faecalis; Enterococcus faecalis, n = 81 isolates",8 µg/mL
same,MIC90,"Enterococcus faecalis; Enterococcus faecalis, n = 81 isolates, read-out: MIC90",≥ 32 µg/mL
same,MIC90,"Enterococcus faecalis; continuation of the preceding table (title not shown), 14 isolates",≥32 µg/mL
same,MIC distribution (µg/ml) 0.03,"Enterococcus faecalis; number of isolates at MIC 0.03 µg/ml, n = 81",0
same,MIC distribution (µg/ml) 0.06,"Enterococcus faecalis; number of isolates at MIC 0.06 µg/ml, n = 81",0
same,MIC distribution (µg/ml) 0.5,"Enterococcus faecalis; number of isolates at MIC 0.5 µg/ml, n = 81",1
same,MIC distribution (µg/ml) 1,"Enterococcus faecalis; number of isolates at MIC 1 µg/ml, n = 81",2
same,MIC distribution (µg/ml) 2,"Enterococcus faecalis; number of isolates at MIC 2 µg/ml, n = 81",12
same,MIC distribution (µg/ml) 4,"Enterococcus faecalis; number of isolates at MIC 4 µg/ml, n = 81",16
same,MIC distribution (µg/ml) 8,"Enterococcus faecalis; number of isolates at MIC 8 µg/ml, n = 81",4
same,MIC distribution (µg/ml) 16,"Enterococcus faecalis; number of isolates at MIC 16 µg/ml, n = 81",1
same,MIC distribution (µg/ml) 0.125,Enterococcus faecalis; [6],1
same,MIC distribution (µg/ml) 0.25,Enterococcus faecalis; [6],1
same,MIC distribution (µg/ml) ≤0.015,"Enterococcus faecalis; number of isolates at MIC ≤[…], n = 81",0
same,MIC distribution (µg/ml) ≥32,"Enterococcus faecalis; number of isolates at MIC ≥32 µg/ml, n = 81",39
same,MIC distribution (µg/ml) 0.03,"Enterococcus faecalis; number of isolates with MIC 0.03 µg/ml, 14 isolates",0
same,MIC distribution (µg/ml) 0.06,"Enterococcus faecalis; number of isolates with MIC 0.06 µg/ml, 14 isolates",0
same,MIC distribution (µg/ml) 0.5,"Enterococcus faecalis; number of isolates with MIC 0.5 µg/ml, 14 isolates",0
same,MIC distribution (µg/ml) 1,"Enterococcus faecalis; number of isolates with MIC 1 µg/ml, 14 isolates",0
same,MIC distribution (µg/ml) 2,"Enterococcus faecalis; number of isolates with MIC 2 µg/ml, 14 isolates",2
same,MIC distribution (µg/ml) 4,"Enterococcus faecalis; number of isolates with MIC 4 µg/ml, 14 isolates",2
same,MIC distribution (µg/ml) 8,"Enterococcus faecalis; number of isolates with MIC 8 µg/ml, 14 isolates",1
same,MIC distribution (µg/ml) 16,"Enterococcus faecalis; number of isolates with MIC […] µg/ml, 14 isolates",0
same,MIC distribution (µg/ml) 0.125,Enterococcus faecalis; [7],0
same,MIC distribution (µg/ml) 0.25,Enterococcus faecalis; [7],0
same,MIC distribution (µg/ml) ≤0.015,"Enterococcus faecalis; number of isolates with MIC ≤[…], 14 isolates",0
same,MIC distribution (µg/ml) ≥32,"Enterococcus faecalis; number of isolates with MIC ≥[…] µg/ml, 14 isolates",9
gentamicin,% Susceptible,Shigella spp.; Shigella spp. N= 21,100%
same,MIC (mg/L) 50%,Shigella spp.; Shigella spp. N= 21,1 mg/L
same,MIC (mg/L) 90%,Shigella spp.; Shigella spp. N= 21,1 mg/L
same,MIC (mg/L) Range,Shigella spp.; Shigella spp. N= 21,0.5 to 1 mg/L
same,% Susceptible,Campylobacter jejuni,100%
same,MIC (mg/L) 50%,Campylobacter jejuni,0.25 mg/L
same,MIC (mg/L) 90%,Campylobacter jejuni,0.5 mg/L
same,MIC (mg/L) Range,Campylobacter jejuni,0.12 to 1 mg/L
same,isolates being resistant,Salmonella spp.,4%
same,% Susceptible,Salmonella spp.,96%
same,MIC (mg/L) 50%,Salmonella spp.,0.25 mg/L
same,MIC (mg/L) 90%,Salmonella spp.,0.5 mg/L
same,MIC (mg/L) Range,Salmonella spp.,0.12 to 128 mg/L
same,% Susceptible,Hafnia alvei,100%
same,MIC (mg/L) 50%,Hafnia alvei,0.25 mg/L
same,MIC (mg/L) 90%,Hafnia alvei,0.5 mg/L
same,MIC (mg/L) Range,Hafnia alvei,0.25 to 0.5 mg/L
same,% Susceptible,Yersinia enterocolitica,100%
same,MIC (mg/L) 50%,Yersinia enterocolitica,1 mg/L
same,MIC (mg/L) 90%,Yersinia enterocolitica,1 mg/L
same,MIC (mg/L) Range,Yersinia enterocolitica,0.5 to 1 mg/L
same,% Susceptible,Aeromonas spp.,100%
same,MIC (mg/L) 50%,Aeromonas spp.,0.5 mg/L
same,MIC (mg/L) 90%,Aeromonas spp.,1 mg/L
same,MIC (mg/L) Range,Aeromonas spp.,0.25 to 1 mg/L
